We go through 26 molecules from ChEMBL document CHEMBL1125129, “Design of potent and selective linear antagonists of vasopressor (V1-receptor) responses to vasopressin” (J Med Chem, 1990).

As a reminder, the pA2 is a measure of antagonist potency on a negative log scale. A low value points to lower antagonist potency.

The structures appear in SMILES notation. Bounds are passed on as bounds.

Assay [1] relates to Rattus norvegicus. Nature of the assay: pA2 value was determined for antidiuretic V2 antagonistic activity in vivo in anesthetized rats pA2 value was determined for antidiuretic V2 antagonistic activity in vivo in anesthetized rats. The format is functional, organism-based. The settings on record: Urine, read-out: pA2 (converted).
The target in assay [2] is Vasopressin V1 receptor (Rattus norvegicus, UniProt P48974+P30560). Nature of the assay: pA2 value was determined for Vasopressin V1 receptor antagonistic activity in vivo in anesthetized rats. Format: functional, organism-based.
The target in assay [3] is Vasopressin V2 receptor (Rattus norvegicus, UniProt Q00788). Description: Vasopressin V2 receptor antagonistic activity in vivo in anesthetized rats. The format is functional, organism-based. The settings on record: for Kb: read-out: pA2 (converted).
For assay [4], the target named is Vasopressin V2 receptor (Rattus norvegicus) (UniProt Q00788). Nature of the assay: Selectivity ratio of antidiuretic Vasopressin V2 receptor ED /[…] receptor ED. The settings on record: Urine.
Assay [5] deals with Vasopressin V1 receptor (Rattus norvegicus) (UniProt P48974+P30560). Description: Effective dose was determined for Vasopressin V1 receptor antagonistic activity in vivo in anesthetized rats. Format: functional, organism-based.
For assay [6], the target named is Vasopressin V2 receptor (Rattus norvegicus) (UniProt Q00788). Nature of the assay: Effective dose was determined for Vasopressin V2 receptor antagonistic activity in vivo in anesthetized rats. Format: functional, organism-based.

Sequence of Vasopressin V2 receptor (Rattus norvegicus) (Q00788 whole entry): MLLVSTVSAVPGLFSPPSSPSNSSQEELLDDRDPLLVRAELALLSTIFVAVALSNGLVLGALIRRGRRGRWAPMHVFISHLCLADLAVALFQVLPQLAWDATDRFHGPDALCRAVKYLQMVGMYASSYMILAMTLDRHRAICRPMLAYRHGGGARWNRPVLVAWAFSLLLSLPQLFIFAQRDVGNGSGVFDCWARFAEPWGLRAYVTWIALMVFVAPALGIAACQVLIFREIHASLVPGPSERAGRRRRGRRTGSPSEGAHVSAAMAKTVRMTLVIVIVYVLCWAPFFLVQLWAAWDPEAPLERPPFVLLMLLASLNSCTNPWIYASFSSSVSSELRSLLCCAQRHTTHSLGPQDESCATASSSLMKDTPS
Sequence of Vasopressin V2 receptor (Q00788 whole entry): as above
Sequence of Vasopressin V1 receptor (Rattus norvegicus) (P30560 whole entry, looked up): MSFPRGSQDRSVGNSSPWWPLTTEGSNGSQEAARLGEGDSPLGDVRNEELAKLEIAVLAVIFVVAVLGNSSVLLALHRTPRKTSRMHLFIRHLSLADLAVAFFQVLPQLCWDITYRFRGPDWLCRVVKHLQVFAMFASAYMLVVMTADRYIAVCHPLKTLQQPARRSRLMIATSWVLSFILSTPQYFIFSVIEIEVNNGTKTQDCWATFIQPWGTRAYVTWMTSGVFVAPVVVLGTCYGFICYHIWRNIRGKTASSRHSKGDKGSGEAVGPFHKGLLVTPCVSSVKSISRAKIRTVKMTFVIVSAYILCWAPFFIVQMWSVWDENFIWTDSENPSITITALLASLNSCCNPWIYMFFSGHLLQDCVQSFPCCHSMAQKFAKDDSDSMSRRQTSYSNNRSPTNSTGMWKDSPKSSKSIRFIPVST
Sequence of Vasopressin V1 receptor (Rattus norvegicus) (P48974 whole entry, looked up): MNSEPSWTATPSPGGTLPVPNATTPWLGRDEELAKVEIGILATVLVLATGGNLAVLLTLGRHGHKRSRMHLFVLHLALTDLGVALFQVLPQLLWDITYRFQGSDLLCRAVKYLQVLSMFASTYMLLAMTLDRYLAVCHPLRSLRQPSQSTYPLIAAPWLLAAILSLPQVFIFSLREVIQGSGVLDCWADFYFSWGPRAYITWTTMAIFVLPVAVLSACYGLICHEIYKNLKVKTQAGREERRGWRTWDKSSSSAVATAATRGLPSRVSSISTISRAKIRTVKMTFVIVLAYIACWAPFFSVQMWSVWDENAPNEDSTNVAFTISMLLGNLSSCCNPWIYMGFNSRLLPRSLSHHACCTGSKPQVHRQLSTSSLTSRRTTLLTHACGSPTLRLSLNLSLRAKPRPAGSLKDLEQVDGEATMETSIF

Take `CCOc1ccc(C[C@@H](NC(=O)Cc2ccccc2)C(=O)N[C@@H](Cc2ccccc2)C(=O)N[C@@H](CCC(N)=O)C(=O)N[C@@H](CC(N)=O)C(=O)N[C@@H](CCCCN)C(=O)N2CCC[C@H]2C(=O)N[C@@H](CCCN=C(N)N)C(N)=O)cc1`: the Kb in assay [1] was 501 nM. In addition, the pA2 in assay [2] came out at 9.05.

In the case of `CCOc1ccc(C[C@@H](NC(=O)Cc2ccccc2)C(=O)N[C@@H](Cc2ccccc2)C(=O)N[C@H](C(=O)N[C@@H](CC(N)=O)C(=O)N[C@@H](CCCCN)C(=O)N2CCC[C@H]2C(=O)N[C@@H](CCCN=C(N)N)C(N)=O)C(C)C)cc1`, the Kb in assay [3] was 43.7 nM. This molecule also came in with a pA2 in assay [2] of 8.81.

As for `CCOc1ccc(C[C@@H](NC(=O)CC23CC4CC(CC(C4)C2)C3)C(=O)N[C@@H](Cc2ccccc2)C(=O)N[C@H](C(=O)N[C@@H](CC(N)=O)C(=O)N[C@@H](CCCCN)C(=O)N2CCC[C@@H]2C(=O)N[C@@H](CCCN=C(N)N)C(=O)N[C@@H](CCCN=C(N)N)C(N)=O)C(C)C)cc1`, the Ratio in assay [4] stood at 2.8. In addition, the values for the Effective dose in assay [5] and in assay [6] were 0.5 nM/kg and 1.4 nM/kg, respectively.

With `COc1ccc(C[C@@H](NC(=O)Cc2ccccc2)C(=O)N[C@@H](Cc2ccccc2)C(=O)N[C@H](C(=O)N[C@@H](CC(N)=O)C(=O)N[C@@H](CCCCN)C(=O)N2CCC[C@H]2C(=O)N[C@@H](CCCN=C(N)N)C(N)=O)C(C)C)cc1`, the Kb in assay [3] is 100 nM. The pA2 in assay [2] amounted to 8.61.

`CCOc1ccc(C[C@@H](NC(=O)CC23CC4CC(CC(C4)C2)C3)C(=O)N[C@@H](Cc2ccccc2)C(=O)N[C@H](C(=O)N[C@@H](CC(N)=O)C(=O)N[C@@H](CCCCN)C(=O)N2CCC[C@@H]2C(=O)N[C@@H](CCCN=C(N)N)C(N)=O)C(C)C)cc1`: the Ratio in assay [4] was 1.7. Besides, the Effective dose was 0.66 nM/kg in assay [5] and 1.1 nM/kg in assay [6].

For the molecule `CCOc1ccc(C[C@@H](NC(=O)Cc2ccccc2)C(=O)N[C@@H](Cc2ccccc2)C(=O)N[C@H](C(=O)N[C@@H](CC(N)=O)C(=O)N[C@@H](CCCCN)C(=O)N2CCC[C@@H]2C(=O)N[C@@H](CCCN=C(N)N)C(N)=O)C(C)C)cc1`, the Ratio in assay [4] was found to be 26. The Effective dose came to 0.11 nM/kg in assay [5] and 2.9 nM/kg in assay [6].

In the case of `CCOc1ccc(C[C@@H](NC(=O)CC(C)(C)C)C(=O)N[C@@H](Cc2ccccc2)C(=O)N[C@H](C(=O)N[C@@H](CC(N)=O)C(=O)N[C@@H](CCCCN)C(=O)N2CCC[C@@H]2C(=O)N[C@@H](CCCN=C(N)N)C(N)=O)C(C)C)cc1`, the Ratio in assay [4] was 41. The Effective dose in assay [5] is 0.17 nM/kg; in assay [6], more than 7 nM/kg.

Consider `CCOc1ccc(C[C@@H](NC(=O)CC23CC4CC(CC(C4)C2)C3)C(=O)N[C@@H](Cc2ccccc2)C(=O)N[C@H](C(=O)N[C@@H](CC(N)=O)C(=O)N[C@@H](CCCCN)C(=O)N2CCC[C@H]2C(=O)N[C@@H](CCCN=C(N)N)C(N)=O)C(C)C)cc1`, for which the Kb in assay [3] was 15.5 nM. The same molecule showed a pA2 in assay [2] of 8.02.

With `CCOc1ccc(C[C@@H](NC(=O)CC23C[C@H]4C[C@@H](C2)C[C@@H](C3)C4)C(=O)N[C@@H](Cc2ccccc2)C(=O)N[C@H](C(=O)N[C@@H](CC(N)=O)C(=O)NCCCC(=O)N2CCC[C@H]2C(=O)N[C@@H](CCCN=C(N)N)C(=O)N[C@@H](CCCN=C(N)N)C(N)=O)C(C)C)cc1`, the Kb in assay [3] was 7.76 nM. Besides, in assay [2], the pA2 was found to be 7.75.

For the molecule `CCOc1ccc(C[C@@H](NC(=O)CC(C)(C)C)C(=O)N[C@@H](Cc2ccccc2)C(=O)N[C@H](C(=O)N[C@@H](CC(N)=O)C(=O)NCCCC(=O)N2CCC[C@@H]2C(=O)N[C@@H](CCCN=C(N)N)C(=O)N[C@@H](CCCN=C(N)N)C(N)=O)C(C)C)cc1`, the Ratio in assay [4] turned out to be 1.2. The Effective dose in assay [5] worked out at 0.71 nM/kg; in assay [6], 0.83 nM/kg.

Take `CCOc1ccc(C[C@@H](NC(=O)CC(C)(C)C)C(=O)N[C@@H](Cc2ccccc2)C(=O)N[C@H](C(=O)N[C@@H](CC(N)=O)C(=O)NCCCC(=O)N2CCC[C@H]2C(=O)N[C@@H](CCCN=C(N)N)C(=O)N[C@@H](CCCN=C(N)N)C(N)=O)C(C)C)cc1`: the Kb in assay [3] is 12.3 nM. Besides, the pA2 in assay [2] is 7.99.

On to `CCOc1ccc(C[C@@H](NC(=O)Cc2ccccc2)C(=O)N[C@@H](Cc2ccccc2)C(=O)N[C@H](C(=O)N[C@@H](CC(N)=O)C(=O)N[C@@H](CCCN)C(=O)N2CCC[C@H]2C(=O)N[C@@H](CCCN=C(N)N)C(=O)N[C@@H](CCCN=C(N)N)C(N)=O)C(C)C)cc1`, for which the Kb in assay [3] is approximately 58.9 nM. For the same molecule, in assay [2], the pA2 is recorded as 8.39.

`CCOc1ccc(C[C@@H](NC(=O)CC23CC4CC(CC(C4)C2)C3)C(=O)N[C@@H](Cc2ccccc2)C(=O)N[C@H](C(=O)N[C@@H](CC(N)=O)C(=O)N[C@@H](CCCN=C(N)N)C(=O)N2CCC[C@@H]2C(=O)N[C@@H](CCCN=C(N)N)C(=O)N[C@@H](CCCN=C(N)N)C(N)=O)C(C)C)cc1`: the Ratio in assay [4] is 1.4. Moreover, the Effective dose in assay [5] amounted to 0.5 nM/kg; in assay [6] it was 0.71 nM/kg.

For the molecule `CCOc1ccc(C[C@@H](NC(=O)CC23C[C@H]4C[C@@H](C2)C[C@@H](C3)C4)C(=O)N[C@@H](Cc2ccccc2)C(=O)N[C@H](C(=O)N[C@@H](CC(N)=O)C(=O)N[C@@H](CC)C(=O)N2CCC[C@H]2C(=O)N[C@@H](CCCN=C(N)N)C(N)=O)C(C)C)cc1`, the pA2 in assay [3] worked out at 7.21; in assay [2], 7.43.

As for `NCCCC[C@H](NC(=O)[C@H](CC(N)=O)NC(=O)[C@H](CCC(N)=O)NC(=O)[C@H](Cc1ccccc1)NC(=O)[C@@H](Cc1ccc(O)cc1)NC(=O)Cc1ccccc1)C(=O)N1CCC[C@H]1C(=O)N[C@@H](CCCN=C(N)N)C(N)=O`, the Kb in assay [3] was 63.1 nM. This molecule also had a pA2 in assay [2] of 8.91.

For `CCOc1ccc(C[C@@H](NC(=O)CC23CC4CC(CC(C4)C2)C3)C(=O)N[C@@H](Cc2ccccc2)C(=O)N[C@H](C(=O)N[C@@H](CC(N)=O)C(=O)N[C@@H](CCCN)C(=O)N2CCC[C@@H]2C(=O)N[C@@H](CCCN=C(N)N)C(=O)N[C@@H](CCCN=C(N)N)C(N)=O)C(C)C)cc1`, in assay [4], the Ratio stood at 0.6. Moreover, the Effective dose was determined as 1.6 nM/kg in assay [5] and 0.9 nM/kg in assay [6].

For the molecule `CCOc1ccc(C[C@@H](NC(=O)CC23C[C@H]4C[C@@H](C2)C[C@@H](C3)C4)C(=O)N[C@@H](Cc2ccccc2)C(=O)N[C@H](C(=O)N[C@@H](CC(N)=O)C(=O)NCCCC(=O)N2CCC[C@@H]2C(=O)N[C@@H](CCCN=C(N)N)C(=O)N[C@@H](CCCN=C(N)N)C(N)=O)C(C)C)cc1`, the Ratio in assay [4] turned out to be 0.44. Further, the Effective dose in assay [5] is 1.2 nM/kg; in assay [6] it was 0.53 nM/kg.

Consider `CCOc1ccc(C[C@@H](NC(=O)CC(C)(C)C)C(=O)N[C@@H](Cc2ccccc2)C(=O)N[C@H](C(=O)N[C@@H](CC(N)=O)C(=O)N[C@@H](CCCN=C(N)N)C(=O)N(C)[C@@H](C)C(=O)N[C@@H](CCCN=C(N)N)C(N)=O)C(C)C)cc1`, for which the Ratio in assay [4] came to 53. Further, the Kb in assay [3] is 251 nM. The values for the Effective dose in assay [5] and in assay [6] were 0.3 nM/kg and 16 nM/kg, respectively. This molecule also had a pA2 in assay [2] of 8.34.

Take `CC(C)[C@H](NC(=O)[C@H](Cc1ccccc1)NC(=O)[C@@H](Cc1ccc(O)cc1)NC(=O)CC12CC3CC(CC(C3)C1)C2)C(=O)N[C@@H](CC(N)=O)C(=O)N[C@@H](CCCN=C(N)N)C(=O)N1CCC[C@H]1C(=O)N[C@@H](CCCN=C(N)N)C(=O)N[C@@H](CCCN=C(N)N)C(N)=O`: the Kb in assay [3] was 21.9 nM. The molecule further registered a pA2 in assay [2] of 8.22.

As for `CCOc1ccc(C[C@@H](NC(=O)Cc2ccccc2)C(=O)N[C@@H](Cc2ccccc2)C(=O)N[C@H](C(=O)N[C@@H](CC(N)=O)C(=O)NCCCC(=O)N2CCC[C@H]2C(=O)N[C@@H](CCCN=C(N)N)C(=O)N[C@@H](CCCN=C(N)N)C(N)=O)C(C)C)cc1`, in assay [3], the Kb is 10.2 nM. The molecule also gave a pA2 in assay [2] of 8.42.

For `NCCCC[C@H](NC(=O)[C@H](CC(N)=O)NC(=O)[C@H](CCC(N)=O)NC(=O)[C@H](Cc1ccccc1)NC(=O)[C@@H](Cc1ccc(O)cc1)NC(=O)Cc1ccccc1)C(=O)N1CCC[C@@H]1C(=O)N[C@@H](CCCN=C(N)N)C(N)=O`, the Ratio in assay [4] stood at 59. The Effective dose in assay [5] is 0.085 nM/kg; in assay [6], 5 nM/kg.

Take `CCOc1ccc(C[C@@H](NC(=O)CC23CC4CC(CC(C4)C2)C3)C(=O)N[C@@H](Cc2ccccc2)C(=O)N[C@H](C(=O)N[C@@H](CC(N)=O)C(=O)N[C@@H](CCCCN)C(=O)N2CCC[C@H]2C(=O)N[C@@H](CCCN=C(N)N)C(=O)N[C@@H](CCCN=C(N)N)C(N)=O)C(C)C)cc1`: the Kb in assay [3] was 20 nM. Moreover, in assay [2], the pA2 stood at 8.14.

In the case of `CCOc1ccc(C[C@@H](NC(=O)CC(C)(C)C)C(=O)N[C@@H](Cc2ccccc2)C(=O)N[C@@H](CCC(N)=O)C(=O)N[C@@H](CC(N)=O)C(=O)N[C@@H](CCCCN)C(=O)N2CCC[C@H]2C(=O)N[C@@H](CCCN=C(N)N)C(N)=O)cc1`, the Kb in assay [3] was 6310 nM. The molecule also registered a pA2 in assay [2] of 8.4.

In the case of `COc1ccc(C[C@@H](NC(=O)Cc2ccccc2)C(=O)N[C@@H](Cc2ccccc2)C(=O)N[C@@H](CCC(N)=O)C(=O)N[C@@H](CC(N)=O)C(=O)N[C@@H](CCCCN)C(=O)N2CCC[C@@H]2C(=O)N[C@@H](CCCN=C(N)N)C(N)=O)cc1`, the Ratio in assay [4] was more than 290. The results for the Effective dose in assay [5] and in assay [6] were 0.083 nM/kg and more than 24 nM/kg, respectively.

`CCOc1ccc(C[C@H]2NC(=O)CC3(CCCCC3)SSC[C@H](C(=O)N3CCC[C@H]3C(=O)N[C@@H](CCCN=C(N)N)C(N)=O)NC(=O)[C@@H](CC(N)=O)NC(=O)[C@H](C(C)C)NC(=O)[C@@H](Cc3ccccc3)NC2=O)cc1`: the Ratio in assay [4] was 3.3. Besides, the results for the Effective dose in assay [5] and in assay [6] were 0.45 nM/kg and 1.5 nM/kg, respectively.

As for `CCOc1ccc(C[C@@H](NC(=O)CC23CC4CC(CC(C4)C2)C3)C(=O)N[C@@H](Cc2ccccc2)C(=O)N[C@H](C(=O)N[C@@H](CC(N)=O)C(=O)N[C@@H](CCCN=C(N)N)C(=O)N2CCC[C@@H]2C(=O)N[C@@H](CCCN=C(N)N)C(N)=O)C(C)C)cc1`, the Ratio in assay [4] turned out to be 2.1. Further, the values for the Effective dose in assay [5] and in assay [6] were 0.66 nM/kg and 1.4 nM/kg, respectively.
